# Reference: patent US6893829B2, “Human leukocyte 12-lipoxygenase and its role in the pathogenesis of disease states” (City of Hope, priority 1992, dated 2005)
# System: leukocyte 12-LO protein in HSMC
# Test: 12-LO protein expression in HSMC (Western immunoblotting)
# Format: cell-based, human
# Method: FIGS. 4A and 4B illustrate the regulation of leukocyte 12-LO protein expression by AII in HSMC. FIG. 4A is an immunoblot showing regulation by AII. FIG. 4B is a bar graph representation of densitometric analysis of immunoblot in FIG. 4A. Cells were grown in medium 199 containing 20% FBS and serum-depleted for 24 hours by placing in medium 199 containing 0.4% FBS and 0.2% BSA. Cells were treated with AII at the concentration of 2×10^−7 mol/L for 24 to 48 hours. Cells were washed with PBS and harvested by scraping. Cell pellets were lysed and cytosol fractions were electrophoresed. […]
# SDS polyacrylamide gel electrophoresis (10% running gel, 4% stacking gel) was performed according to the method of Laemmli (24). […] Nonspecific binding was evaluated using normal rabbit serum. Western blots were quantitated using a computerized video densitometer (Applied Imagining, Santa Clara, Calif.; Lynx DNA vision) and values expressed as arbitrary absorbance units.
# To examine whether AII induces the 12-LO enzyme expression in HSMC, cells were treated with AII at the concentration of 2×10^−7 mol/L for 24 or 48 hours. […] A distinct band was detected with a molecular weight of nearly 72 kD which is the reported molecular weight of the porcine leukocyte-type of 12-LO (FIG. 4). […]
substance,measurement,setting,value
"Angiotensin II (DRVYIHPF; Angiotensin-2; UniProt P01019 25-32, looked up) [AII, peptide hormone, added to cells as stimulus]",increase in 12-LO protein expression,"AII 2×10^−7 mol/L, 24 hour, serum free media",seven
same,12-LO expression induction,"AII, 48 hours, data not shown",4-7 fold
